From patent US20160090351A1, “INHIBITORS OF DEUBIQUITINATING PROTEASES” (BRANDEIS UNIVERSITY, priority 2013, published 2016)

How the values were obtained:
HEK 293T cells = test: accumulation of K48- and K63-linked Ub species in HEK 293T cells; format: cell-based, human; conditions: 50 μM, 2 h
Experimental: FIG. 32 depicts data showing that diphenyl carbonates inhibit DUBs in HEK 293T cells. A. Viability of HEK 293T cells assessed by the propidium iodide exclusion method: diphenyl carbonate (100 μM), bortezomib (V, 20 μM) and G5 (2 μM). N≧3, mean+/−s.d. B. HEK 293T cells were treated with the stated compounds (50 μM) for 2 h and then assayed for the accumulation of K48-linked Ub species. C. As in A, but K63-linked Ub was assayed. D. HEK 293T cells were treated with C14, C15, C17, C18 (100 μM) or DMSO for 2 hours, then harvested, lysed and treated with HA-Ub-VS. After 30 min, lysates were analyzed by SDS-PAGE and probed for HA, tubulin and actin. An intervening lane was removed for clarity. E. HEK 293T cells expressing Ub-G76V-GFP were treated with diphenyl carbonates (100 μM), bortezomib (20 μM) and G5 (2 μM). […] N>3, Mean+/−s.d. See also FIG. 39. […]

[1] = tested on: USP9x, USP19, USP7/8, USP28/15; test: HA-Ub-VS activity profiling in cell lysates, USPs; format: biochemical, human; conditions: for HA-Ub-VS labeling of USPs: HEK 293T lysates
Experimental: HA-ubiquitin vinylsulfone (HA-Ub-VS) irreversibly labels DUBs by modifying the catalytic cysteine residue Inhibition of the DUB prevents HA-Ub-VS labeling and the band is. […] The interaction with UCHL1/3 is reversible.
Lysate labeling assay on untransfected cells (1.5 mg/mL) was run with the stated concentration of inhibitor (or 1% DMSO control) for between 19-60 mins. After this time HA-Ub-VS (1.5-0.7 μM) was added and incubated for 19 mins. After this time reaction mixture (9 μL) was removed and quenched in 2× (final concentration) reducing loading buffer. For recovery experiments, a lysate of 6 mg/mL was treated with saturating compound C14 (250 μM) and incubated for 40 mins. Afterward, the lysate was diluted to 0.6 mg/mL (final concentration of inhibitor 25 μM) in lysis buffer (final volume 100 μL), then HA-Ub-VS was added. Aliquots (15 μL) were removed at the stated time (5-119 mins) and immediately quenched in 2× (final concentration) reducing loading buffer. For all HA-Ub-VS experiments samples in loading buffer were heated only to 37° C. prior to loading on a gel. This assay is highly susceptible to concentration of lysate and HA-Ub-VS. Cell experiments were carried out as above with some modifications. For Cos-1 and MCF-7 cells, after trypsinization, media with compound was added to give a final concentration of compound equal to that used in the assay. Cell pellets were lysed on an ice/salt bath with a temperature of −5° C. and lysate was centrifuged for only 5 mins.
HA-Ub-VS is an irreversible inhibitor of DUBs that is widely used in activity profiling. If the DUB inhibitors react to form a thiocarbonylated enzyme as proposed (FIG. 29B), then HA-Ub-VS labeling will be blocked. Treatment of HEK 293T lysates with HA-Ub-VS produced the characteristic pattern of protein bands at 250, 150-100, 45, 38 and 36 kDa, generally ascribed to USP9x (292 kDa), USP19 (146 kDa), USP7/8 (128 and 127 kDa, respectively), USP28/15 (122 and 112 kDa, respectively), UCH-L5 (38 kDa), UCH-L3 (26 kDa) and UCH-L1 (25 kDa) as depicted in FIG. 31.
The effect of diphenylcarbonates on HA-Ub-VS labeling was assessed to investigate the selectivity of DUB inhibition. Lysates were preincubated with diphenyl carbonates (75 μM), then treated with HA-Ub-VS (FIG. 31A). […] These C17 and C22-sensitive DUBs are most likely USP9x, USP19, USP7/8 and UCHL5, based on molecular weight (FIGS. 31B and 38). The identity of USP7 was confirmed by immunoblotting (FIG. 38F). […] Similar behavior was observed on Cos-1 cell lysates (FIG. 38B).

[2] = tested on: ubiquitin-proteasome system; test: GFP-G76V-Ub assay in HEK 293T cells; format: cell-based, human; conditions: diphenyl carbonates 100 μM, bortezomib 20 μM, G5 2 μM
Experimental: FIG. 32 depicts data showing that diphenyl carbonates inhibit DUBs in HEK 293T cells. A. Viability of HEK 293T cells assessed by the propidium iodide exclusion method: diphenyl carbonate (100 μM), bortezomib (V, 20 μM) and G5 (2 μM). N≧3, mean+/−s.d. B. HEK 293T cells were treated with the stated compounds (50 μM) for 2 h and then assayed for the accumulation of K48-linked Ub species. C. As in A, but K63-linked Ub was assayed. D. HEK 293T cells were treated with C14, C15, C17, C18 (100 μM) or DMSO for 2 hours, then harvested, lysed and treated with HA-Ub-VS. After 30 min, lysates were analyzed by SDS-PAGE and probed for HA, tubulin and actin. An intervening lane was removed for clarity. E. HEK 293T cells expressing Ub-G76V-GFP were treated with diphenyl carbonates (100 μM), bortezomib (20 μM) and G5 (2 μM). […] N>3, Mean+/−s.d. See also FIG. 39.
FACS was carried out on a […] FACS-Calibur. For HEK 293T and K562, cells were resuspended by repeated pipetting/agitation of the incubation media, followed by dilution into PBS. For Cos-1, MCF-7, and CHO cells, media was removed and trypsin was added. Harvested cells were placed in FACS buffer (0.5% FBS in PBS with 3 μg/mL propidium iodide) 30 s prior to analysis. All data were analyzed using FlowJo V10, from TreeStar (Ashland, Oreg.). Approximately 2500 cells were sorted per replicate. Cells were sorted by propidium iodide dye exclusion to give a “viable population”. GFP positive cells within this group were identified relative to untransfected controls. Then the geometric mean of the whole GFP positive population within the viable population was calculated. Typical transfection efficiencies for G76V ubiquitin were 60-70% for both Cos-1 and HEK 293T and 25-40% for CHO cells, based on GFP positive cells.
The activity of the diphenylcarbonates in the GFP-G76V-Ub assay, which monitors flux through the ubiquitin-proteasome system, was also investigated. The G76V mutation creates an unstable Ub fusion protein that is degraded in a proteasome dependent process. GFP fluorescence increased when HEK 293T cells expressing GFP-G76V-Ub were treated with the proteasome inhibitor bortezomib and decreased upon treatment with G5 (FIG. 39). This decrease has been attributed to increased flux through the ubiquitin-proteasome system triggered by the accumulation of HMW-Ub. […] Perhaps the inability of the diphenylcarbonates to inhibit UCH-L1/3 accounts for the stability of GFP-G76V-Ub. This selectivity might also explain the low cytoxicity of these compounds relative to G5.

[3] = 75 μM, 30 minutes preincubation

SMILES | accumulation of K48-linked HMW-Ub (HEK 293T cells) | accumulation of K63-linked Ub chains (HEK 293T cells) | HA-Ub-VS labeling of USPs [1, 3] | GFP fluorescence [2] | HA-Ub-VS labeling, dose response ([1]; at 12 μM) | HA-Ub-VS labeling of USPs ([1]; preincubation with G5)
NCc1ccc(OC(=O)Oc2cccc3ccccc23)cc1 [Compound C18] | K48-linked HMW-Ub species accumulated | increase the accumulation of K63-linked Ub chains | decreased HA-Ub-VS labeling of several USPs | no change in fluorescence was observed |  | 
NCc1ccc(OC(=O)Oc2ccc3ccccc3c2)cc1 [Compound C17] | K48-linked HMW-Ub species accumulated | increase the accumulation of K63-linked Ub chains | decreased HA-Ub-VS labeling of several USPs | no change in fluorescence was observed | significantly inhibited the labeling of several high molecular weight proteins | 
NCc1ccc(OC(=O)Oc2ccc(Br)cc2)cc1 [Compound C15, 4-(aminomethyl)phenyl(4-bromophenyl)carbonate] | K48-linked HMW-Ub species accumulated | increase the accumulation of K63-linked Ub chains | decreased HA-Ub-VS labeling of several USPs | no change in fluorescence was observed |  | 
O=C1/C(=C/c2ccc([N+](=O)[O-])cc2)CS(=O)(=O)C/C1=C\c1ccc([N+](=O)[O-])cc1 [Compound G5, reference compound] |  |  |  | decreased |  | decreased the labeling of all the USPs
NCc1ccc(OC(=O)Oc2ccc(Cl)cc2)cc1 [Compound C14, 4-(aminomethyl)phenyl(4-chlorophenol)carbonate] | K48-linked HMW-Ub species accumulated | increase the accumulation of K63-linked Ub chains | decreased HA-Ub-VS labeling of several USPs | no change in fluorescence was observed |  | 
